Data as given in ChEMBL document CHEMBL5303304, “EUbOPEN Chemogenomics Library - IncuCyte” (2023).
Where “and” joins values, the source holds several entries; their conditions need not be identical. Equal values may be shown once.

Key:
Format in all cases: toxicity, cell-based
Fibroblast = assay: Incucyte cell viability with human fibroblast; conditions: 10 µM, compound concentration 10 uM
U2OS = assay: Incucyte cell viability with U2OS; conditions: human, 10 µM, compound concentration 10 uM
HEK-293T = assay: Incucyte cell viability with HEK293T; conditions: human, 10 µM, compound concentration 10 uM
Note: unitless GR value; below 1 slowed growth and below 0 cell loss.

SMILES	Growth Rate (Fibroblast; 6 h, replicate number 1)	Growth Rate (Fibroblast; 12 h, replicate number 2)	Growth Rate (Fibroblast; 18 h, replicate number 1)	Growth Rate (Fibroblast; 24 h, replicate number 1)	Growth Rate (U2OS; 0 h, replicate number 1)	Growth Rate (U2OS; 6 h, replicate number 1)	Growth Rate (U2OS; 12 h, replicate number 1)	Growth Rate (U2OS; 24 h, replicate number 2)	Growth Rate (HEK-293T; 6 h, replicate number 1)	Growth Rate (HEK-293T; 6 h, replicate number 2)	Growth Rate (HEK-293T; 12 h, replicate number 1)	Growth Rate (U2OS; 12 h, replicate number 2)	Growth Rate (U2OS; 24 h, replicate number 1)	Growth Rate (HEK-293T; 24 h, replicate number 1)	Growth Rate (Fibroblast; 0 h, replicate number 1)	Growth Rate (Fibroblast; 12 h, replicate number 1)	Growth Rate (Fibroblast; 18 h, replicate number 2)	Growth Rate (HEK-293T; 18 h, replicate number 2)	Growth Rate (HEK-293T; 24 h, replicate number 2)	Growth Rate (HEK-293T; 0 h, replicate number 2)	other results
CN1[C@@H](CC(=O)c2ccccc2)CCC[C@H]1C[C@H](O)c1ccccc1.Cl [LOBELINE HYDROCHLORIDE]	0.48	0.64	0.91	0.58	0.28	0.83	0.92	0.87	0.43	0.24	0.62	–	–	–	–	–	–	–	–	–	Growth Rate (Fibroblast; 0 h, replicate number 2): -0.71; Growth Rate (Fibroblast; 6 h, replicate number 2): 0.28; Growth Rate (Fibroblast; 24 h, replicate number 2): 0.83; Growth Rate (U2OS; 0 h, replicate number 2): -0.67; Growth Rate (U2OS; 18 h, replicate number 2): 1
COc1cc(Oc2nc(-c3ccc(NC(=O)C4CCOC4)cc3)nn3c(C)nc(C)c23)cc(OC)c1OC (stereo not drawn)	–	0.75	–	–	–	0.98	–	–	–	–	–	0.94	0.87	0.96	–	–	–	–	–	–	Growth Rate (Fibroblast; 0 h, replicate number 2): 0.03
COc1cc(-c2cc3ncccc3c(O[C@H](C)[C@H]3CNC(=O)C3)n2)cc(OC)c1OC.Cl	0.62	0.61 and 0.94	0.88	–	–	–	0.79	0.94	–	–	–	–	0.78	–	-1	0.89	0.86	0.97	0.86	–	Growth Rate (Fibroblast; 0 h, replicate number 2): -0.01; Growth Rate (U2OS; 18 h, replicate number 1): 0.92
COCc1c(-c2cc3cc(C)cc(OC)c3s2)c2c(N)ncnn2c1CN[C@@H]1CCNC1=O	0.36	–	0.59	0.46	–	0.62	0.45	0.9	0.47	0.58	0.43	0.77	0.44	0.62	-1	0.6	0.77	0.49	0.65	-0.02	Growth Rate (Fibroblast; 24 h, replicate number 2): 0.98; Growth Rate (U2OS; 0 h, replicate number 2): 0.73; Growth Rate (U2OS; 18 h, replicate number 1): 0.84; Growth Rate (U2OS; 18 h, replicate number 2): 0.85; Growth Rate (HEK-293T; 0 h, replicate number 1): -0.25; Growth Rate (HEK-293T; 12 h, replicate number 2): 0.2; Growth Rate (HEK-293T; 18 h, replicate number 1): 0.61
CCc1ncnc(N2CCN(C(C)=O)CC2)c1C#Cc1ccc(N)nc1.Cl.Cl	–	0.76	0.66	0.61	-0.47	0.86	0.73	0.68	-0.05	-0.04	0.06	0.99	0.7	0.01	–	0.68	0.52	0.01	0.02	-0.97	Growth Rate (Fibroblast; 6 h, replicate number 2): 0.3; Growth Rate (Fibroblast; 24 h, replicate number 2): 0.53; Growth Rate (U2OS; 18 h, replicate number 1): 0.73; Growth Rate (U2OS; 18 h, replicate number 2): 0.8; Growth Rate (HEK-293T; 12 h, replicate number 2): -0.05; Growth Rate (HEK-293T; 18 h, replicate number 1): 0.05
Cc1cc(-c2nc(-c3ccc(OC(F)(F)F)cc3)no2)nn1Cc1ccnc(N2CCN(C3CC3)CC2)c1	0.9	0.36	0.22	0.26	–	–	0.94	0.71	0.47	-0.22	0.32	0.51	0.88	0.37	-1	0.3	0.2	0.18	0.3	–	Growth Rate (Fibroblast; 24 h, replicate number 2): 0.5; Growth Rate (U2OS; 18 h, replicate number 2): 0.61; Growth Rate (HEK-293T; 12 h, replicate number 2): 0.08; Growth Rate (HEK-293T; 18 h, replicate number 1): 0.25
CN(C)C(=O)Cn1cc(-c2ccc(-c3cncc4ccccc34)cc2)cn1	0.8	0.98	–	–	0.61	0.46	–	–	0.92	–	–	0.83	0.9	–	-1	–	–	–	–	0.39	Growth Rate (Fibroblast; 6 h, replicate number 2): -0.33; Growth Rate (U2OS; 18 h, replicate number 1): 0.99; Growth Rate (HEK-293T; 0 h, replicate number 1): 0.29
CC(C)Oc1ccc(Cc2ccc(NC3=NCCN3)cc2)cc1	-0.34	0.88	0.24	0.26	0.6	0.1	0.64	–	-0.15	-0.39	0.09	–	0.58	0.37	-1	-0.06	–	0.42	0.45	–	Growth Rate (Fibroblast; 0 h, replicate number 2): -0.09; Growth Rate (Fibroblast; 6 h, replicate number 2): 0; Growth Rate (U2OS; 18 h, replicate number 1): 0.59; Growth Rate (HEK-293T; 12 h, replicate number 2): 0.14; Growth Rate (HEK-293T; 18 h, replicate number 1): 0.26
Cc1nccc(COC(=O)N2C[C@@H]3[C@@H](CNC(=O)c4ccc5[nH]nnc5c4)[C@@H]3C2)n1 [BI 3017]	–	–	0.93	–	0.85	0.95	–	–	0.95	–	–	0.99	0.86	–	–	–	0.73	–	0.99	0.4	Growth Rate (Fibroblast; 24 h, replicate number 2): 0.95; Growth Rate (HEK-293T; 0 h, replicate number 1): 0.2
CS(=O)(=O)NCC[C@H](NC(=O)c1cncc2c1cnn2-c1ccc(F)cc1)c1ccnc(S(C)(=O)=O)c1 [BI 9307]	0.89	–	–	–	–	0.83	–	–	–	–	–	0.91	–	1	-0.98	0.91	–	–	–	0.23	Growth Rate (Fibroblast; 0 h, replicate number 2): -0.94; Growth Rate (U2OS; 6 h, replicate number 2): 0.9; Growth Rate (HEK-293T; 0 h, replicate number 1): -0.12
Cc1cn([C@@H](C)CC#N)c(=O)c2cc(Cn3nc(C(F)F)cc3Cl)nn12	–	0.66	–	0.85	–	0.19	0.51	0.78	0.53	0.84	0.72	0.71	0.73	0.92	–	–	0.99	0.77	0.81	0.77	Growth Rate (Fibroblast; 6 h, replicate number 2): 0.71; Growth Rate (U2OS; 18 h, replicate number 1): 0.6; Growth Rate (U2OS; 18 h, replicate number 2): 0.88; Growth Rate (HEK-293T; 12 h, replicate number 2): 0.81; Growth Rate (HEK-293T; 18 h, replicate number 1): 0.89
O=C1Nc2ccc(I)cc2/C1=C/c1cc(Br)c(O)c(Br)c1	–	–	–	–	-0.98	–	–	–	–	0.9	–	–	–	–	-1	–	–	0.88	0.86	0.38	Growth Rate (U2OS; 0 h, replicate number 2): 0.76; Growth Rate (HEK-293T; 0 h, replicate number 1): -0.98; Growth Rate (HEK-293T; 12 h, replicate number 2): 0.98
